The values that follow come from patent US8288396B2, “Pyrimidopyrimidoindazole derivative” (MSDKK, priority 2009, dated 2012).

A word on the EC50: it is the concentration needed to bring the measured effect to its halfway point. A word on the IC50: it is the concentration that inhibits the measured activity by half. A high value points to lower potency.

Assay [1] relates to Cdc2 (Cdk1) tyrosine-15 phosphorylation. Kind of assay: Inhibitory effect on Cdc2 (Cdk1) tyrosine-15 phosphorylation in NCI-H1299 cells (Pharmacological Test 2). Type of assay: cell-based. The following applies: Homo sapiens, camptothecin 200 nM 16 hours, then test compound with nocodazole 8 hours, ELISA, read-out: Cdc2-Y15 Phosphorylation-Inhibitory Effect (H1299, +camptothecin) (EC50). The text has this: Pharmacological Test 2 (Method for Determining Drug Effect Using Cells (Inhibitory Effect on Cdc2 (Cdk1) Tyrosine-15 Phosphorylation))
Fetal bovine serum (FBS) was purchased from Morgate, Inc.; an RPMI-1640 medium and a DMEM medium were purchased from Invitrogen, Inc.; camptothecin was purchased from Sigma Co.; gemcitabine was purchased from Eli Lilly Japan K.K.; nocodazole and protease inhibitor cocktail were purchased from Sigma Co.; a rabbit anti-Cdc2 antibody and a mouse anti-Cdc2 antibody were purchased from Santa Cruz Biotechnology, Inc.; a rabbit anti-tyrosine-15-phosphorylated Cdc2 antibody and a horseradish peroxidase-labeled anti-mouse IgG antibody were purchased from Cell Signaling Technology, Inc.; and Sure Blue Reserve TMB peroxidase substrate was purchased from Kirkegaard & Perry Laboratories, Inc.
A human non-small cell lung cancer cell line (NCI-H1299) and a human colon cancer cell line (WiDr) can be obtained from American Type Culture Collection (ATCC).
In the method using NCI-H1299 cells, the cells were suspended in an RPMI-1640 medium supplemented with 10% FBS, and 100 μL of the resulting cell suspension was dispensed in a Nunclon Delta treated 96-well plastic plate purchased from Nunc, Inc. at a density of 2000 cells per well, and the plate was incubated overnight at 37° C. under an atmosphere of 5% CO2 and 95% air. Camptothecin was dissolved in dimethyl sulfoxide (DMSO) and further the resulting solution was diluted with an RPMI-1640 medium supplemented with 10% FBS. Then, 50 μL of the diluted solution was added to each well of the plate in which the cells were seeded in advance such that the final concentration of camptothecin was 200 nM, and the plate was incubated at 37° C. under an atmosphere of 5% CO2 and 95% air for 16 hours. A test compound was serially diluted with DMSO, and further diluted with an RPMI-1640 medium supplemented with 10% FBS containing 4000 nM nocodazole. Then, 50 μL of the test compound solution was added to each well of the plate in which the cells treated with camptothecin were seeded, and the plate was incubated at 37° C. under an atmosphere of 5% CO2 and 95% air for 8 hours. Then, the culture medium was removed from each well and 100 μL of a cell lysis buffer was added to each well, and the plate was shaken at 4° C. for 2 hours, and thereafter the liquid in the plate was frozen at −80° C. and then thawed, which was used as a lysed cell solution. Cdc2 and tyrosine-15-phosphorylated Cdc2 in this lysed cell solution were measured by an enzyme-linked immunosorbent assay (ELISA method), and a ratio of tyrosine-15-phosphorylated Cdc2 to Cdc2 was calculated to determine a 50% effective concentration (EC50, nM) of the test compound for inhibition of phosphorylation in cells. The cell lysis buffer as used herein is an aqueous solution containing 20 mM HEPES (pH 7.5), 150 mM sodium chloride, 1 mM disodium ethylenediamine tetraacetate, 0.1% polyoxyethylene (10) octylphenyl ether, 1% protease inhibitor cocktail, 1 mM dithiothreitol, 2 mM sodium orthovanadate, 10 mM sodium fluoride and 10 mM glycerol diphosphate. The measurement of Cdc2 by the ELISA method was carried out as follows. 50 μL of a solution of a rabbit anti-Cdc2 antibody obtained by diluting the antibody to 200 times with 50 mM carbonate-bicarbonate buffer (pH 9.6) was dispensed into each well of a 96-well Maxisorb immunoplate purchased from Nunc, Inc., and the immunoplate was let stand overnight at 4° C. to immobilize the antibody thereto. Subsequently, each well was washed three times with phosphate buffered saline (PBS), and 300 μL of PBS containing 5% bovine serum albumin (5% BSA/PBS) was added to each well, and then, the immunoplate was let stand at room temperature for 2 hours. […]
A general note: An ELISA detects its analyte on a solid surface through an enzyme-linked reagent.

For assay [2], the target named is T1, Wee1 kinase (Homo sapiens, UniProt P30291).
T1 construct: made in house; host or cells: Sf9 insect cells (recombinant baculovirus)
T1 sequence (P30291 whole entry): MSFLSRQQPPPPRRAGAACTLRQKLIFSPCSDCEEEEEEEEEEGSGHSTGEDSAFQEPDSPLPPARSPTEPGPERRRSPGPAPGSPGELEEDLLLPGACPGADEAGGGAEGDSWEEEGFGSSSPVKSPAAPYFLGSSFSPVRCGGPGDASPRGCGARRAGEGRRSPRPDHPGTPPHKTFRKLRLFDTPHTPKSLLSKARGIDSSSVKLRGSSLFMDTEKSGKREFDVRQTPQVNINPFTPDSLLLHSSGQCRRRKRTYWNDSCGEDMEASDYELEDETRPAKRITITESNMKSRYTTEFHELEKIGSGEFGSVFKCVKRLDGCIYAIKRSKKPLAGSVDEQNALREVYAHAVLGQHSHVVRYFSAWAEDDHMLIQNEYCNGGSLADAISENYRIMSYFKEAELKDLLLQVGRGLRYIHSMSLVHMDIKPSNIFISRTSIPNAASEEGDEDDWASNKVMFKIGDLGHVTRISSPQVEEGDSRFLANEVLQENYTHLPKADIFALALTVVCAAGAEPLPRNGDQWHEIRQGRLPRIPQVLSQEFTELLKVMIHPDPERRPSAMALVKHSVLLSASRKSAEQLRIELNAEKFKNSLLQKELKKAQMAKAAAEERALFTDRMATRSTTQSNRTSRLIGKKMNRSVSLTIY
In words: Wee1 kinase inhibitory effect (Pharmacological Test 1). The settings on record: GST-tagged Wee1 kinase, Poly(Lys, Tyr) substrate, 10 μM ATP, 30° C. for 30 minutes. Type of assay: biochemical. The text has this: Pharmacological Test 1 (Wee1 Kinase Inhibitory Effect)
(1) Purification of Wee1 Kinase
A cDNA of Wee1 kinase with […] (GST) fused at the amino terminal thereof was inserted into a baculovirus expression vector to construct a recombinant baculovirus, with which cells of an insect cell line Sf9 were infected to overexpress the target protein. The infected cells were collected and lysed, and then the GST-tagged Wee1 kinase protein was adsorbed to a glutathione column and eluted from the column with glutathione, and the active fraction was desalted in a desalting column to give a purified enzyme.
(2) Measurement of Wee1 Kinase Activity
In measurement of the Wee1 kinase activity, a synthetic peptide, Poly(Lys, Tyr) hydrobromide (Lys:Tyr (4:1)) purchased from Sigma was used as the substrate.
The amount of the reaction mixture was 21.1 μL; and the composition of the reaction buffer was 50 mM Tris-HCl buffer (pH 7.4)/10 mM magnesium chloride/1 mM dithiothreitol. The purified Wee1 kinase, 2.5 μg of the substrate peptide, 10 μM of non-labeled adenosine triphosphate (ATP) and 1 μCi of [γ-^33P]-labeled ATP (2500 Ci/mmol or more) were added to the reaction buffer, and the resulting mixture was incubated at 30° C. for 30 minutes. Thereafter, 10 μL of 350 mM phosphate buffer was added to the reaction system to stop the reaction. The substrate peptide was adsorbed on a P81 paper filter 96-well plate and the plate was washed several times with 130 mM phosphate buffer, and the radioactivity thereof was counted using a liquid scintillation counter. The [γ-^33P]-labeled ATP was purchased from Amersham Bioscience, Ltd.
The addition of a test compound to the reaction system was carried out by preparing a series of dilutions of the compound with dimethyl sulfoxide (DMSO) and adding 1.1 μL of each dilution to the reaction system. As a control, 1.1 μL of DMSO was added to the reaction system.

With `CN1CCc2ccc(Nc3ncc4c(=O)n5c(nc4n3)c3ccccc3n5-c3ncccn3)cc2C1` [Example 101, 2-[(2-methyl-1,2,3,4-tetrahydroisoquinolin-7-yl)amino]-7-(pyrimidin-2-yl)pyrimido[4′,5′:4,5]pyrimido[1,2-b]indazol-5(7H)-one], in assay [1], the 50% effective concentration (EC50) was 43 nM. This compound came in with a concentration for half-maximal inhibition (IC50) in assay [2] of 3.8 nM.

In the case of `CN1CCc2cc(Nc3ncc4c(=O)n5c(nc4n3)c3ccccc3n5-c3nccs3)ccc2C1` [Example 136, 2-[(2-methyl-1,2,3,4-tetrahydroisoquinolin-6-yl)amino]-7-(1,3-thiazol-2-yl)pyrimido[4′,5′:4,5]pyrimido[1,2-b]indazol-5(7H)-one], the EC50 in assay [1] was determined as 11 nM. Also, the half-maximal inhibitory concentration (IC50) in assay [2] is 5.3 nM.

For `CN(C)[C@H]1CCN(c2ccc(Nc3ncc4c(=O)n5c(nc4n3)c3ccccc3n5-c3ncccn3)cc2)C1` [Example 79, 2-({4-[(3S)-3-(dimethylamino)pyrolidin-1-yl]phenyl}amino)-7-(pyrimidin-2-yl)pyrimido[4′,5′:4,5]pyrimido[1,2-b]indazol-5(7H)-one], in assay [1], the 50% effective concentration (EC50) was 370 nM. Further, the IC50 in assay [2] was 24 nM.

For `CN1CCc2cc(Nc3ncc4c(=O)n5c(nc4n3)c3ccccc3n5-c3ncccn3)ccc2C1(C)C` [Example 103, 7-(pyrimidin-2-yl)-2-[(1,1,2-trimethyl-1,2,3,4-tetrahydroisoquinolin-6-yl)amino]pyrimido[4′,5′:4,5]pyrimido[1,2-b]indazol-5(7H)-one], in assay [1], the EC50 came to 31 nM. In addition, the concentration for half-maximal inhibition (IC50) in assay [2] came out at 6.8 nM.

As for `CN(C)CCN1CCc2cc(Nc3ncc4c(=O)n5c(nc4n3)c3ccccc3n5-c3nccs3)ccc21` [Example 144, 2-({1-[2-(dimethylamino)ethyl]-2,3-dihydro-1H-indol-5-yl}amino)-7-(1,3-thiazol-2-yl)pyrimido[4′,5′:4,5]pyrimido[1,2-b]indazol-5(7H)-one], the EC50 in assay [1] came to 190 nM. The compound further gave a concentration for half-maximal inhibition (IC50) in assay [2] of 15 nM.

In the case of `CN1CCc2cc(Nc3ncc4c(=O)n5c(nc4n3)c3ccccc3n5-c3ccccn3)ccc2C1` [Example 43, 2-[(2-methyl-1,2,3,4-tetrahydroisoquinolin-6-yl)amino]-7-(pyridin-2-yl)pyrimido[4′,5′:4,5]pyrimido[1,2-b]indazol-5(7H)-one], in assay [1], the concentration giving a half-maximal response (EC50) is 31 nM. The same compound displayed an IC50 in assay [2] of 4.9 nM.
